Key:
[1] = system: DA2 receptor; experiment: Goldberg in situ femoral arterial preparation (DA2 assay), intra-arterial injection; type: in vivo, dog; settings: for ED50: blood flow increase, i.a. bolus into femoral artery, anesthetized dog; for Relative Efficacy to DA2 Standard: optimal response of test compound divided by optimal response of DPDA; for Relative Potency to DA2 Standard: standard (DPDA) ED50 divided by test compound ED50
Protocol: The compounds were subsequently tested following intra-arterial administration in an in situ renal and femoral arterial preparation in the dog, as developed by L.I. Goldberg, to test for DA1 and DA2 dopamine activity, respectively. Details of the methodology are provided in the European J. Pharmacol. 89 :137, 1983, as well as in Hypertension 6 :1-25, 1984.
The compounds of this invention were tested following intra-arterial administration in an in situ renal and femoral arterial preparation in the dog, as developed by L.I. Goldberg, to test for DA1 and DA2 dopamine activity, respectively. Details of the methodology are provided in the European J. Pharmacol. , 89 :137, 1983, as well as in Hypertension , 6 :1-25, 1984. J. L. McNay, L. I. Goldberg JPET 151 :23-31, 1966.
The compounds were injected directly into the renal or femoral artery for analysis of DA, or DA2 activity, respectively. […] The compounds were tested for relative activity in comparison to the standard DA, agonist, dopamine or the standard DA2 agonist, DPDA. Specific DA, or DA2 activity of the tested compound was verified by Sch 23390 or domperidone blockade.
Adult mongrel dogs of either sex (12-20 kg) were anesthetized with pentobarbital sodium (33 mg/kg, i.v.). The animals were intubated and ventilated with room air using a Harvard respirator.
The compounds of this invention were tested following intra-arterial administration in an in situ renal and femoral arterial preparation in the dog, as developed by L.I. Goldberg, to test for DA1 and DA2 dopamine activity, respectively. Details of the methodology are provided in the European J. Pharmacol. , 89 :137, 1983, as well as in Hypertension , 6 :1-25, 1984. J. L. McNay, L. I. Goldberg JPET 151 :23-31, 1966
The compounds were injected directly into the renal or femoral artery for analysis of DA1 or DA2 activity, respectively. […] The compounds were tested for relative activity in comparison to the standard DA1 agonist, dopamine or the standard DA2 agonist, DPDA. Specific DA, or DA2 activity of the tested compound was verified by Sch 23390 or domperidone blockade.
The thoracic aorta was catheterized with a Millar micro-tip (size 5F) transducer via the right carotid artery for blood pressure monitoring. The right external jugular vein was cannulated with PE-160 tubing for supplemental pentobarbital administration. The left femoral artery was isolated and an electromagnetic flowprobe of the appropriate size (8-11 mm circ.) was placed around the artery and connected to a Caroline Medical electromagnetic flowmeter. Surface ECG leads were placed subcutaneously on the chest and limbs to monitor heart rate. A 25 gauge 3/4" needle bent 90` , 4 mm from the tip, was placed in the femoral artery proximal to the probe and connected to an infusion pump delivering saline at a constant rate of 1 ml/min. Following a saline and bradykinin challenge (0.02 to 0.04 nmoles, in 0.2 ml saline, i.a.), a dose response curve for DPDA was generated by injecting 4-fold increasing doses i.a. ranging from 3 to 48 nmoles in 0.2 ml saline. Test compounds were injected similarly in 4-fold increasing doses up to 3000 nmoles. Compounds were then repeated at their optimal dose following domperidone pretreatment (10-40 Ilg/kg, iv).
Efficacy ratios were determined by division of the optimal response of the test compound by the optimal response of the standard agent. The optimal dose of compound was defined as that which produced a maximum increase in blood flow before causing a change in systemic blood pressure. ED50 values were derived by regression analysis from individually generated dose response curves. Potency ratios were the quotients calculated from the division of the standard agent EDso by the ED50 of the test compound. […] If the inhibition of the test compound was similar to that of dopamine or DPDA, the compound was considered to be a DA, or DA2 agonist, respectively.

[2] = system: saline-loaded spontaneously hypertensive rat (SHR); experiment: Spontaneous Hypertensive Rat - diuretic activity, saline-loaded, oral; type: in vivo; settings: for Urine K^+ (mEq/sample) / Urine Na^+ (mEq/sample) / Urine Volume: n = 7, mean ± S.D.
Protocol: Additionally, these compounds were examined for diuretic activity for 6 hours following oral compound administration in the saline-loaded spontaneously hypertensive rat (SHR). Methods for this assay have been previously described (Rosenkranz, et al, Proc. West. Pharmacol. Soc. 28 :87, 1985). The diuretic and natriuretic effects elicited by these compounds were characterized by an immediate onset of action.
The compounds of this invention were examined for diuretic activity for 6 hours following oral compound administration in the saline-loaded spontaneously hypertensive rat (SHR). Methods for this assay have been previously described (Rosenkranz, et al, Proc. West. Pharmacol. Soc. 28 :87, 1985). The diuretic and natriuretic effects elicited by these compounds were characterized by an immediate onset of action.
Male spontaneously hypertensive SHR/NCrIBR rats weighing 320-430 gms were divided into four groups of seven animals. All animals were food- and water-deprived overnight. The following morning, each group of rats was hydrated with deionized water (20 ml/kg, po) forty-five minutes prior to the administration of vehicle or the test compounds.
Following vehicle or drug, the rats were placed in individual metabolic units. Fifteen minutes post-dose the animals were saline-loaded (30 ml/kg, po). Urine was collected at 1, 3 and 6 hour intervals post-saline- load. Urine volumes were measured and sodium and potassium levels were determined by flame photometry.
A two-way analysis of variance with time, treatment and their interaction was run as a repeated measures analysis. A secondary model of one-way analysis of variance (by time) was run using specified contrasts. The p-values for the contrasts were adjusted using Fisher's LSD strategy at each time point.

[3] = po 3 mg/kg, cumulative time 1 hr
[4] = po 3 mg/kg, cumulative time 3 hr
[5] = po 3 mg/kg, cumulative time 6 hr
[6] = po 10 mg/kg, cumulative time 1 hr
[7] = po 10 mg/kg, cumulative time 3 hr
[8] = po 10 mg/kg, cumulative time 6 hr
[9] = po 30 mg/kg, cumulative time 1 hr
[10] = po 30 mg/kg, cumulative time 3 hr
[11] = po 30 mg/kg, cumulative time 6 hr

Br.Br.CCCN(CCCCCCN1CCC[C@@H]1Cc1ccc(O)c(O)c1)CCc1ccc(O)cc1 [Test Compound 1, (R)-2-(3,4-dihydroxybenzyl)-1-[6-(N-(4-hydroxyphenethyl)-N-propylamino)hexyl]pyrrolidine dihydrobromide]
ED50 [1]: 0.02 nmol
Relative Efficacy to DA2 Standard [1]: 1.29
Relative Potency to DA2 Standard [1]: 327.50
kaliuresis ([2]; 30 mg/kg, po, 1, 3, and 6 hour post-dose time points): significant kaliuresis
Urine K^+ (mEq/sample) [2, 3]: 0.03±0.04 mEq/sample
Urine Na^+ (mEq/sample) [2, 3]: 0.02±0.02 mEq/sample
Urine Volume [2, 3]: 4.6 ± 1.9 mL
Urine K^+ (mEq/sample) [2, 4]: 0.11±0.05 mEq/sample
Urine Na^+ (mEq/sample) [2, 4]: 0.07±0.03 mEq/sample
Urine Volume [2, 4]: 7.8 ± 1.4 mL
Urine K^+ (mEq/sample) [2, 5]: 0.20±0.07 mEq/sample
Urine Na^+ (mEq/sample) [2, 5]: 0.25±0.10 mEq/sample
Urine Volume [2, 5]: 9.4 ± 1.8 mL
Urine K^+ (mEq/sample) [2, 6]: 0.06±0.03 mEq/sample
Urine Na^+ (mEq/sample) [2, 6]: 0.28±0.13 mEq/sample
Urine Volume [2, 6]: 9.9 ± 3.6 mL
Urine K^+ (mEq/sample) [2, 7]: 0.16±0.08 mEq/sample
Urine Na^+ (mEq/sample) [2, 7]: 0.51±0.22 mEq/sample
Urine Volume [2, 7]: 11.4 ± 3.9 mL
Urine K^+ (mEq/sample) [2, 8]: 0.22±0.11 mEq/sample
Urine Na^+ (mEq/sample) [2, 8]: 0.51±0.27 mEq/sample
Urine Volume [2, 8]: 11.8 ± 3.9 mL
Urine K^+ (mEq/sample) [2, 9]: 0.07±0.02 mEq/sample
Urine Na^+ (mEq/sample) [2, 9]: 0.61±0.16 mEq/sample
Urine Volume [2, 9]: 14.7 ± 2.3 mL
Urine K^+ (mEq/sample) [2, 10]: 0.24±0.05 mEq/sample
Urine Na^+ (mEq/sample) [2, 10]: 1.13±0.25 mEq/sample
Urine Volume [2, 10]: 18.6 ± 2.8 mL
Urine K^+ (mEq/sample) [2, 11]: 0.31±0.06 mEq/sample
Urine Na^+ (mEq/sample) [2, 11]: 1.31±0.27 mEq/sample
Urine Volume [2, 11]: 19.3 ± 2.7 mL

Br.Br.CCCN(CCCCCCN1CCC[C@@H]1Cc1ccc(O)c(O)c1)CCc1cccc(O)c1 [Test Compound 2, (R)-2-(3,4-dihydroxybenzyl)-1-[6-(N-(3-hydroxyphenethyl)-N-propylamino)hexyl]pyrrolidine dihydrobromide]
ED50 [1]: 0.04 nmol
Relative Efficacy to DA2 Standard [1]: 1.26
Relative Potency to DA2 Standard [1]: 216.00
Urine K^+ (mEq/sample) [2, 3]: 0.02±0.01 mEq/sample
Urine Na^+ (mEq/sample) [2, 3]: 0.00±0.00 mEq/sample
Urine Volume [2, 3]: 5.2 ± 1.4 mL
Urine K^+ (mEq/sample) [2, 4]: 0.09±0.04 mEq/sample
Urine Na^+ (mEq/sample) [2, 4]: 0.06±0.04 mEq/sample
Urine Volume [2, 4]: 7.9 ± 0.7 mL
Urine K^+ (mEq/sample) [2, 5]: 0.17±0.05 mEq/sample
Urine Na^+ (mEq/sample) [2, 5]: 0.19±0.07 mEq/sample
Urine Volume [2, 5]: 9.1 ± 0.8 mL
Urine K^+ (mEq/sample) [2, 6]: 0.02±0.01 mEq/sample
Urine Na^+ (mEq/sample) [2, 6]: 0.09±0.05 mEq/sample
Urine Volume [2, 6]: 8.9 ± 1.6 mL
Urine K^+ (mEq/sample) [2, 7]: 0.10±0.06 mEq/sample
Urine Na^+ (mEq/sample) [2, 7]: 0.26±0.12 mEq/sample
Urine Volume [2, 7]: 11.2 ± 2.0 mL
Urine K^+ (mEq/sample) [2, 8]: 0.13±0.09 mEq/sample
Urine Na^+ (mEq/sample) [2, 8]: 0.31±0.17 mEq/sample
Urine Volume [2, 8]: 11.7 ± 2.4 mL
Urine K^+ (mEq/sample) [2, 9]: 0.03±0.02 mEq/sample
Urine Na^+ (mEq/sample) [2, 9]: 0.16±0.05 mEq/sample
Urine Volume [2, 9]: 13.0 ± 2.2 mL
Urine K^+ (mEq/sample) [2, 10]: 0.13±0.07 mEq/sample
Urine Na^+ (mEq/sample) [2, 10]: 0.40±0.12 mEq/sample
Urine Volume [2, 10]: 15.7 ± 2.1 mL
Urine K^+ (mEq/sample) [2, 11]: 0.17±0.09 mEq/sample
Urine Na^+ (mEq/sample) [2, 11]: 1.45±0.12 mEq/sample
Urine Volume [2, 11]: 15.9 ± 2.1 mL
